Assays:
[1] = Mouse plasma stability; type: in vitro ADME, CD-1 mouse; conditions: 1 μM lipid
Protocol: Lipid stock solution was prepared by dissolution of the lipid in isopropanol at the concentration of 5 mg/mL. A requisite volume of the lipid-isopropanol solution was then diluted to 100 μM concentration at a total volume of 1.0 mL with in 50:50 (v/v) ethanol/water. Ten microliters of this 100 μM solution was spiked into 1.0 mL of mouse plasma (BioIVT, Cat. No.: MSE00PLNHUNN, CD-1 mouse, anticoagulant: sodium heparin, not filtered) that was pre-warmed to 37° C. and was stirred at 50 rpm with a magnetic stir bar. The starting concentration of lipids in plasma was thus 1 μM. At time points 0, 15, 30, 45, 60 and 120 min, 0.1 mL of the plasma was withdrawn from the reaction mixture and the protein was precipitated by adding 0.9 mL of ice-cold 4:1 (v/v) acetonitrile/methanol with 1 μg/mL of a selected internal standard lipid added. After filtration through a 0.45 micron 96-well filtering plate, the filtrates were analyzed by LC-MS (Thermo Fisher's Vanquish UHPLC-LTQ XL linear ion trap Mass Spectrometer); Waters XBridge BEH Shield RP18 2.5 micron (2.1×100 mm) column with its matching guard column. Mobile phase A was 0.1% formic acid in water, and mobile phase B was 0.1% formic acid in 1:1 (v/v) acetonitrile/methanol. Flow rate was 0.5 ml/min. Elution gradient was: Time 0-1 min: 10% B; 1-6 min: 10%-95% B; 6-8.5 min: 95% B; 8.5-9 min: 95%-10% B; 9-10 min: 10% B. Mass spectrometry was in positive scanning mode from 600-1100 m/z. The peak of the molecular ion of the lipids was integrated in the extracted ion chromatography (XIC) using Xcalibur software (Thermo Fisher). The relative peak area compared to T=0, after normalization by the peak area of the internal standard, was used as the percentage of the lipid remaining at each time point. T1/2 values were calculated using the first-order decay model.

[2] = In vivo biodegradability assay (lipid concentration in mouse liver by LC-MS); design: species or system mice; conditions: BLOQ: below level of quantification; for In vivo degradability (ng tissue) at 48 h 0.1 mpk: Table 1, 0.1 mpk; for In vivo degradability (ng/tissue) at 48 h 0.1 mpk: Table 2, 0.1 mpk
Protocol: In vivo biodegradability assay was performed to assess the biodegradability of lipids in the LNP. Briefly, mice were injected with either 0.1 or 0.03 mg/Kg dose and after 24 or 48 hours mice livers were collected. To measure the concentration of lipids in the mouse liver, liver samples were homogenized in appropriate buffer in 1-10 dilution and mixed with the same amount of stabilized plasma. The samples were then mixed with organic solvents spiked with internal standard to precipitate proteins. After centrifugation, supernatant was diluted further with organic solvent before sample analysis by LC-MS. In LC-MS analysis, positive electrospray ionization was used, and multiple reaction monitoring (MRM) parameters were set up to specifically target the lipid analyte and internal standard. Calibration standards were prepared in stabilized plasma and mixed with same amount of homogenization buffer before protein precipitation. Quality control samples with known amounts of lipid was prepared in blank liver homogenate to monitor the precision and accuracy of the assay.

Compound	Plasma half life % remaining after 2 h ([1]; Table 1, 37° C.) [%]	Plasma half life % remaining after 2 h ([1]; Table 2, 37° C.) [%]	In vivo degradability (ng/tissue) at 48 h 0.03 mpk ([2]; Table 1, 0.03 mpk)	In vivo degradability (ng tissue) at 48 h 0.1 mpk [2]	In vivo degradability (ng/tissue) at 48 h 0.03 mpk ([2]; Table 2, 0.03 mpk)	In vivo degradability (ng/tissue) at 48 h 0.1 mpk [2]
CCCCCCCCC(=O)OCC(COC(=O)CCCCCCCC)OC(=O)CCCN(CCCC(=O)OC(COC(=O)CCCCCCCC)COC(=O)CCCCCCCC)C(=O)SCCCN(C)C [LIPID 1, ((4,4′-((((3-(Dimethylamino)propyl)thio)carbonyl)azanediyl)bis(butanoyl))bis(oxy))bis(propane-2,1,3-triyl) tetranonanoate]	14	14	BLOQ	BLOQ	BLOQ	BLOQ
CCCCCCCCC(=O)OCC(COC(=O)CCCCCCCC)OC(=O)CCCC(CCCC(=O)OC(COC(=O)CCCCCCCC)COC(=O)CCCCCCCC)OC(=O)CCCN(C)C.Cl [LIPID 3, bis(1,3-bis(Nonanoyloxy)propan-2-yl) 5-((4-(dimethylamino)butanoyl)oxy)nonanedioate HCl Salt]	15	15	BLOQ	BLOQ	BLOQ	BLOQ
CCCCCCCC(=O)OCC(COC(=O)CCCCCCC)OC(=O)CCCC(CCCC(=O)OC(COC(=O)CCCCCCC)COC(=O)CCCCCCC)SC(=O)CCCN(C)C [LIPID 4, bis(1,3-bis(Octanoyloxy)propan-2-yl) 5-((4-(dimethylamino)butanoyl)thio)nonanedioate]	13	13	BLOQ	BLOQ	BLOQ	BLOQ
CCCCCCCCC(=O)OCC(COC(=O)CCCCCCCC)OC(=O)CCC(CCC(=O)OC(COC(=O)CCCCCCCC)COC(=O)CCCCCCCC)OC(=O)CCCN(C)C [LIPID 5, bis(1,3-bis(Nonanoyloxy)propan-2-yl) 4-((4-(dimethylamino)butanoyl)oxy)heptanedioate]	40	40	BLOQ	BLOQ	BLOQ	BLOQ
CCCCCCCCC(=O)OCC(COC(=O)CCCCCCCC)OC(=O)CN(CC(=O)OC(COC(=O)CCCCCCCC)COC(=O)CCCCCCCC)C(=O)SCCCN(C)C [LIPID 8, ((2,2′-((((3-(Dimethylamino)propyl)thio)carbonyl)azanediyl)bis(acetyl))bis(oxy))bis(propane-2,1,3-triyl) tetranonanoate]	81	81	BLOQ	BLOQ	BLOQ	BLOQ
CN(C)CCCSC(=O)N(CCCC(=O)OC(COC(=O)CCC1CCCCC1)COC(=O)CCC1CCCCC1)CCCC(=O)OC(COC(=O)CCC1CCCCC1)COC(=O)CCC1CCCCC1 [LIPID 10, ((4,4′-((((3-(Dimethylamino)propyl)thio)carbonyl)azanediyl)bis(butanoyl))bis(oxy))bis(propane-2,1,3-triyl) tetrakis(3-cyclohexylpropanoate)]	36	36	BLOQ	BLOQ	BLOQ	BLOQ
CN(C)CCCSC(=O)N(CCCC(=O)OC(COC(=O)CCCC1CCCCC1)COC(=O)CCCC1CCCCC1)CCCC(=O)OC(COC(=O)CCCC1CCCCC1)COC(=O)CCCC1CCCCC1 [LIPID 11, ((4,4′-((((3-(Dimethylamino)propyl)thio)carbonyl)azanediyl)bis(butanoyl))bis(oxy))bis(propane-2,1,3-triyl) tetrakis(4-cyclohexylbutanoate)]	40	40	BLOQ	BLOQ	BLOQ	BLOQ
CN(C)CCCSC(=O)N(CCCCCC(=O)OC(COC(=O)CCC1CCCCC1)COC(=O)CCC1CCCCC1)CCCCCC(=O)OC(COC(=O)CCC1CCCCC1)COC(=O)CCC1CCCCC1 [LIPID 12, ((6,6′-((((3 (dimethylamino)propyl)thio)carbonyl)azanediyl)bis(hexanoyl))bis(oxy))bis(propane-2,1,3-triyl) tetrakis(3-cyclohexylpropanoate)]	57	57	BLOQ	BLOQ	BLOQ	BLOQ
CCCCCCCCC(=O)OCC(COC(=O)CCCCCCCC)OC(=O)CCN(CCC(=O)OC(COC(=O)CCCCCCCC)COC(=O)CCCCCCCC)C(=O)SCCCN(C)C [LIPID 13]	74	74	<340 ng/tissue	<340 ng tissue	<340 ng/tissue	<340 ng/tissue
CCCCCCCCC(=O)OCC(COC(=O)CCCCCCCC)COC(=O)CCN(CCC(=O)OCC(COC(=O)CCCCCCCC)COC(=O)CCCCCCCC)C(=O)SCCCN(C)C [LIPID 14]	116	100	<340 ng/tissue	<340 ng tissue	<340 ng/tissue	<340 ng/tissue
CC1CCC(CC(=O)OCC(COC(=O)CC2CCC(C)CC2)OC(=O)CCCN(CCCC(=O)OC(COC(=O)CC2CCC(C)CC2)COC(=O)CC2CCC(C)CC2)C(=O)SCCCN(C)C)CC1 (centres unmarked) [LIPID 15, ((4,4′-((((3-(dimethylamino)propyl)thio)carbonyl)-azanediyl)bis(butanoyl))bis(oxy))bis(propane-2,1,3-triyl) tetrakis(2-(4-methylcyclohexyl)acetate)]	256	100	<340 ng/tissue	<340 ng tissue	<340 ng/tissue	<340 ng/tissue
CCCCCCC(C)C(=O)OCC(COC(=O)C(C)CCCCCC)OC(=O)CCCN(CCCC(=O)OC(COC(=O)C(C)CCCCCC)COC(=O)C(C)CCCCCC)C(=O)SCCCN(C)C (centres unmarked) [LIPID 18, ((4,4′-((((3-(Dimethylamino)propyl)thio)carbonyl)-azanediyl)bis(butanoyl))bis(oxy))bis(propane-2,1,3-triyl) tetrakis(2-methyloctanoate)]	100	100	<340 ng/tissue	639 ng tissue	<340 ng/tissue	639 ng/tissue
CCCCCC(C)(C)C(=O)OCC(COC(=O)C(C)(C)CCCCC)OC(=O)CCCN(CCCC(=O)OC(COC(=O)C(C)(C)CCCCC)COC(=O)C(C)(C)CCCCC)C(=O)SCCCN(C)C [LIPID 19, ((4,4′-((((3-(Dimethylamino)propyl)thio)carbonyl)-azanediyl)bis(butanoyl))bis(oxy))bis(propane-2,1,3-triyl) tetrakis(2,2-dimethylheptanoate)]		100	<340 ng/tissue	847 ng tissue	<340 ng/tissue	847 ng/tissue
CC1CCC(CCC(=O)OCC(C)(COC(=O)CCC2CCC(C)CC2)COC(=O)CCN(CCC(=O)OCC(C)(COC(=O)CCC2CCC(C)CC2)COC(=O)CCC2CCC(C)CC2)C(=O)SCCCN(C)C)CC1 (centres unmarked) [LIPID 20]		100			<340 ng/tissue	<340 ng/tissue
CC1CCC(CC(=O)OCC(C)(COC(=O)CCN(CCC(=O)OCC(C)(COC(=O)CC2CCC(C)CC2)COC(=O)CC2CCC(C)CC2)C(=O)SCCCN(C)C)COC(=O)CC2CCC(C)CC2)CC1 (centres unmarked) [LIPID 21]		100			<340 ng/tissue	<340 ng/tissue
